Reference: US11242345B2, “Sulfonimidoylpurinone compounds and methods of treatment using the same” (Hoffmann-La Roche Inc., priority 2015, dated 2022)
Where two headings read alike, the source gives them in different places. Each block holds one compound with its values, some of them ahead of it.

Columns and labels:
hERG channel = hERG channel (Homo sapiens (Human), UniProt Q12809); assay: hERG channel inhibition assay (patch-clamp, CHOhERG cells); assay type: cell-based; settings: for IC20: human, CHO cells stably expressing hERG
Sequence of hERG channel (Q12809 whole entry): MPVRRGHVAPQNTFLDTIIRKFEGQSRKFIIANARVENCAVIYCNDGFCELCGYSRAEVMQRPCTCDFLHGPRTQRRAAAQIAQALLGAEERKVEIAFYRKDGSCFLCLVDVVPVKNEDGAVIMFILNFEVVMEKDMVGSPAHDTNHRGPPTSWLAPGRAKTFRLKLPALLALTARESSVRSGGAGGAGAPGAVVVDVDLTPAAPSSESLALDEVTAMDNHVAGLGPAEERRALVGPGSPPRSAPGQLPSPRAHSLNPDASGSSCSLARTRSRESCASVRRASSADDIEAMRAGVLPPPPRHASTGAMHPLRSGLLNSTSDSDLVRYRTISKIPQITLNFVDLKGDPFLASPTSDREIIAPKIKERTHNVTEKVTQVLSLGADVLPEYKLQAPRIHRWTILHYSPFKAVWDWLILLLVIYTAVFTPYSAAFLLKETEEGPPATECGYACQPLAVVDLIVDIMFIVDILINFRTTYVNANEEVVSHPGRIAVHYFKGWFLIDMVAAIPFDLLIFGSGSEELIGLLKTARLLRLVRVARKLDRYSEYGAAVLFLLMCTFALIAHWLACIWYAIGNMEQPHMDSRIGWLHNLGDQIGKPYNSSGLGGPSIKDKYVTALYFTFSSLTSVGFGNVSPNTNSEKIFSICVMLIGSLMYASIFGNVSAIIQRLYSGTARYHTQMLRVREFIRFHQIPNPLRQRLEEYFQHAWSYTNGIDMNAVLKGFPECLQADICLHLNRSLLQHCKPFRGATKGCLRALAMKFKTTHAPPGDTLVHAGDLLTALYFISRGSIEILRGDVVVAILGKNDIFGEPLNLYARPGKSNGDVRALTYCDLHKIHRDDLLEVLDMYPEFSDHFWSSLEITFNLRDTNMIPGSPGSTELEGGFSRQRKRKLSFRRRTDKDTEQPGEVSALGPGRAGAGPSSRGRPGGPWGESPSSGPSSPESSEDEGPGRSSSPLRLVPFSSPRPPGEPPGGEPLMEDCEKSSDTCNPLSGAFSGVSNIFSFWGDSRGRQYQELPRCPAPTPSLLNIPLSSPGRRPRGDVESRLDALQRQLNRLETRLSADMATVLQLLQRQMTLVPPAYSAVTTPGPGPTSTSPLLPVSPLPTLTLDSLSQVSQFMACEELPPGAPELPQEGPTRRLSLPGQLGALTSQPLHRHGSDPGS
Procedure: The hERG K^+ channels were cloned in humans and stably expressed in a CHO (Chinese hamster ovary) cell line. CHOhERG cells were used for patch-clamp (voltage-clamp, whole-cell) experiments. Cells were stimulated by a voltage pattern to activate hERG channels and conduct IKhERG currents (rapid delayed outward rectifier potassium current of the hERG channel). […] Thereafter, the test compound was added to the preparation at increasing concentrations. For each concentration, an attempt was made to reach a steady-state effect, usually, this was achieved within 3-10 min at which time the next highest concentration was applied. The amplitude and kinetics of IKhERG are recorded in each concentration of the drug which were compared to the control values (taken as 100%). (references: Redfern W S, Carlsson L, Davis A S, Lynch W G, MacKenzie I, Palethorpe S, Siegl P K, Strang I, Sullivan A T, Wallis R, Camm A J, Hammond T G. 2003; Relationships between preclinical cardiac electrophysiology, clinical QT interval prolongation and torsade de pointes for a broad range of drugs: evidence for a provisional safety margin in drug development. Cardiovasc. Res. 58:32-45, Sanguinetti M C, Tristani-Firouzi M. 2006; hERG potassium channels and cardiac arrhythmia. Nature 440:463-469, Webster R, Leishman D, Walker D. 2002; Towards a drug concentration effect relationship for QT prolongation and torsades de pointes. Curr. Opin. Drug Discov. Devel. 5:116-26).

human TLR7 = human TLR7 (Homo sapiens (Human), UniProt Q9NYK1); assay: HEK-Blue-hTLR7 cells assay (SEAP reporter); assay type: cell-based; settings: 20 hrs
Sequence of human TLR7 (Q9NYK1 27-1049): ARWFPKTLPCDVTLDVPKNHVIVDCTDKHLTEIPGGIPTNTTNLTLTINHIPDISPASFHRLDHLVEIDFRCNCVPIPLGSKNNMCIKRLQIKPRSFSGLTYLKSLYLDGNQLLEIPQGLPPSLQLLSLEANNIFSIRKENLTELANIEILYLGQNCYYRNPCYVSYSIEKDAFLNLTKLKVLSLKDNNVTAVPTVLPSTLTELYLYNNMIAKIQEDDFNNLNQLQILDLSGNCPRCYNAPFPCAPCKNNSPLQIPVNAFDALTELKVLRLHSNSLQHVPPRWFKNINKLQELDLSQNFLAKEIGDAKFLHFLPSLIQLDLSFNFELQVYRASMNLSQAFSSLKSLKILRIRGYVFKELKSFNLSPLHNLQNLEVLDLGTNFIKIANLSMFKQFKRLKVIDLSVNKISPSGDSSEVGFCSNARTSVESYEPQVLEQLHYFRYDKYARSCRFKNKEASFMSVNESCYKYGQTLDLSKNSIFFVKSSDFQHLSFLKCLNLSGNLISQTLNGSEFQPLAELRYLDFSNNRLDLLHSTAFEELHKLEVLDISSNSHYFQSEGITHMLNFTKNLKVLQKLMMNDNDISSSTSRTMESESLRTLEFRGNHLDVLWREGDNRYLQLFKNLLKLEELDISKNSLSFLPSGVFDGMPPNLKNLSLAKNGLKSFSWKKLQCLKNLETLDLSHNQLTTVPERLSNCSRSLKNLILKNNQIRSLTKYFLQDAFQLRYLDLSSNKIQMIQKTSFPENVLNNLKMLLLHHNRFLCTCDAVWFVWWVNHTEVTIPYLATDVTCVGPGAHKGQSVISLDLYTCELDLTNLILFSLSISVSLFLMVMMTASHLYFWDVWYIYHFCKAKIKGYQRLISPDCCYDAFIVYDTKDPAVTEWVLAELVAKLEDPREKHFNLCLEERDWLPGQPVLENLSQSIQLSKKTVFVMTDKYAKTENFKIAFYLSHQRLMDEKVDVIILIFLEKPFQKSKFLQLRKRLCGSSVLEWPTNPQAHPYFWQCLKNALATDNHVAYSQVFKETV
Procedure: A stable HEK-Blue-hTLR7 cell line was purchased from InvivoGen (Cat. #: hkb-htlr7, San Diego, Calif., USA). These cells were designed for studying the stimulation of human TLR7 by monitoring the activation of NF-κB. […] Therefore the reporter expression was regulated by the NF-κB promoter upon stimulation of human TLR7 for 20 hrs. The cell culture supernatant SEAP reporter activity was determined using QUANTI-Blue™ kit (Cat. #: rep-qbl, Invivogen, San Diego, Ca, USA) at a wavelength of 640 nm, a detection medium that turns purple or blue in the presence of alkaline phosphatase.
HEK-Blue-hTLR7 cells were incubated at a density of 250,000-450,000 cells/mL in a volume of 180 μL in a 96-well plate in Dulbecco's Modified Eagle's medium (DMEM) containing 4.5 g/L glucose, 50 U/mL penicillin, […], […], 2 mM L-glutamine, 10% (V/V) heat-inactivated fetal bovine serum for 24 hrs. Then the HEK-Blue-hTLR-7 cells were incubated with addition of 20 μL test compound in a serial dilution in the presence of final DMSO at 1% and perform incubation under 37° C. in a CO2 incubator for 20 hrs. Then 20 μL of the supernatant from each well was incubated with […] Quanti-blue substrate solution at 37° C. for 2 hrs and the absorbance was read at 620-655 nm using a spectrophotometer. The signalling pathway that TLR7 activation leads to downstream NF-κB activation has been widely accepted, and therefore similar reporter assay was also widely used for evaluating TLR7 agonist (Tsuneyasu Kaisho and Takashi Tanaka, Trends in Immunology, Volume 29, Issue 7, July 2008, […]; Hiroaki Hemmi et al, Nature Immunology 3, 196-200 (2002)).

CYP3A4 = assay: Cytochrome P450 induction screening assay, mRNA induction in human cryopreserved hepatocytes; assay type: in vitro ADME; settings: 24 hours
Text: Induction of cytochrome P450 enzymes is associated with an increased prevalence of clinical drug-drug interactions. The clinical consequences of induction may be therapeutic failure caused by a decreased systemic exposure of the drug itself or a co-administered therapy, or toxicity as a result of increased bioactivation. Cytochrome P450 (CYP450) induction assay has been used to understand the potential drug-drug interaction liabilities in drug discovery stage. Human cryopreserved hepatocytes (Life Technologies, Carlsbad, USA) were thawed and cultured in collagen I coated 96-well plates with a density of 52,000 cells/well. After attachment, hepatocyte maintenance medium (HMM; Lonza, Switzerland) was changed after cells were pre-cultured overnight. […] Medium change was then performed and cells were exposed for 24 hours to test compounds, positive inducer compounds, or vehicle (0.1% DMSO), respectively. At the end of the compound exposure period, medium was removed and cells lysed using 100 μL/well MagNA Pure LC RNA isolation tissue lysis buffer (Roche Diagnostics AG, Rotkreuz, Switzerland). […] mRNA isolation was performed using the MagNA Pure 96 system (Roche Diagnostics AG, Rotkreuz, Switzerland) and the respective cellular RNA large volume kit (Roche Diagnostics AG, Rotkreuz, Switzerland) from thawed samples diluted 1:1 with PBS. […] The resulting cDNA was diluted with 40 μL of H2O before using for qRT-PCR. qRT-PCR was performed by using the forward and the reverse primer, the corresponding Universal Probe Library (all from Microsynth, Balgach, Switzerland) and the Taqman Fast advanced master mix (Applied Biosystems), on an ABI 7900 machine (Applied Biosystems). qRT-PCR Ct-values for the respective P450s were put into relation to the Ct-value of RN18S1 (microsynth, Balgach, Switzerland) of the same sample. Doing so, a respective Δct-value was calculated. Using the average of all Δct-values for the vehicle control samples, a ΔΔct-value was calculated for each sample (ΔΔct-value(sample)=Δct-value(sample)−average of Δct-value of all vehicle controls). […] The individual fold induction values were then averaged per treatment condition (usually n=3 biological replicates). […] Relative induction (%)=100×(T−V)/(P−V) • T: fold induction of test compound condition • P: fold induction of positive inducer compound • V: fold induction of vehicle controls Results of CYP3A4 induction are given in Table 5.

human TLR8 = human TLR8 (Homo sapiens (Human), UniProt Q9NR97); assay: HEK-Blue-hTLR8 cells assay (SEAP reporter) and selectivity index; assay type: cell-based; settings: 20 hrs, read-out: HEK Blue hTLR-8 EC50
Sequence of human TLR8 (Q9NR97 27-1041): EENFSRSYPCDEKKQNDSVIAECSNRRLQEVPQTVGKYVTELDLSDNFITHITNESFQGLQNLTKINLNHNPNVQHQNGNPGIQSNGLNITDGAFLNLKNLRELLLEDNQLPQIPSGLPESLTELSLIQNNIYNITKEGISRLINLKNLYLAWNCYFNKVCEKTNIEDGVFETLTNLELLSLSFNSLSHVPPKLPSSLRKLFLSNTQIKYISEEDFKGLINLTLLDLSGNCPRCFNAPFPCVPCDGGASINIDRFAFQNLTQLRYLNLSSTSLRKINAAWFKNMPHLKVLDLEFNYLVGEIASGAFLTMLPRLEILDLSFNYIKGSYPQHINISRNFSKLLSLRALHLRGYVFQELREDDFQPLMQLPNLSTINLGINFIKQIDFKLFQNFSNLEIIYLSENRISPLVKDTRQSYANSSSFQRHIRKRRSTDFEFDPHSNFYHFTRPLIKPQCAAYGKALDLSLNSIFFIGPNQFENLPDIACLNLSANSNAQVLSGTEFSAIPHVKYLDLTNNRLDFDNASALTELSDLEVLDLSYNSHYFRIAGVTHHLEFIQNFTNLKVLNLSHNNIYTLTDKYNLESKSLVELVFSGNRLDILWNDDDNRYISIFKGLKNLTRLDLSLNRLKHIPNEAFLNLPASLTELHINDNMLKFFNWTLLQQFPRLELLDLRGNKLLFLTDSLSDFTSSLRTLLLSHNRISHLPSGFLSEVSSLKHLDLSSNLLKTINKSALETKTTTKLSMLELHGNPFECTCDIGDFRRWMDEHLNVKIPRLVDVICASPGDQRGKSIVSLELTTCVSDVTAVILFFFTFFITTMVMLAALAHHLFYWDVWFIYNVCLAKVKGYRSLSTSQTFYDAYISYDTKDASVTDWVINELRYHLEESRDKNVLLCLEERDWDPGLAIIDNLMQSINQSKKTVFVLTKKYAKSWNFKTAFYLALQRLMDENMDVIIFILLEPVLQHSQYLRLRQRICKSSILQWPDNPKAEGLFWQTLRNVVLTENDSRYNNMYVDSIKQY
Procedure: These cells were designed for studying the stimulation of human TLR8 by monitoring the activation of NF-κB. […] Therefore the reporter expression was regulated by the NF-κB promoter upon stimulation of human TLR8 for 20 hrs.
Then the HEK-Blue-hTLR8 cells were incubated with addition of 20 μL test compound in a serial dilution in the presence of final DMSO at 1% and perform incubation under 37° C. in a CO2 incubator for 20 hrs. […] The signalling pathway that TLR8 activation leads to downstream NF-κB activation has been widely accepted, and therefore similar reporter assay was also widely used for evaluating TLR8 agonist (Tsuneyasu Kaisho and Takashi Tanaka, Trends in Immunology, Volume 29, Issue 7, July 2008, […]; Hiroaki Hemmi et al, Nature Immunology 3, 196-200 (2002)).

[1] = Single dose PK after 1 mg/kg intravenous dosing to rat; assay type: in vivo, Male Wister-Han Rats; settings: IV 1 mpk
Procedure: The single dose PK in Male Wister-Han Rats was performed to assess pharmacokinetic properties of tested compounds. Two groups of animals were dosed via bolus intravenous (IV) of the respective compound. Blood samples (approximately 20 μL) were collected via Jugular vein or an alternate site at 5 min, 15 min, 30 min, 1 hr, 2 hr, 4 hr, 7 hr and 24 hr post-dose for IV group. Blood samples were placed into tubes containing EDTA-K2 anticoagulant and centrifuged at 5000 rpm for 6 min at 4° C. to separate plasma from the samples. Following centrifugation, the resulting plasma was transferred to clean tubes for bioanalysis on LC/MS/MS. The pharmacokinetic parameters were calculated using non-compartmental module of WinNonlin® Professional 6.2. […] Therefore, compounds of present invention potentially could lead to less dose frequency and lower dose in clinical application.

[2] = rat, IV 1 mpk; data from WO2016023511; cited from earlier work
[3] = tested on: patients with chronic hepatitis B; settings: phase Ib; cited from earlier work
[4] = read-out: HEK-Blue-hTLR7 (EC50 (μM))
[5] = male, Wister-Han, plasma, iv, 1 mg/kg

EC50 (human TLR7; [4]): 0.18 µM
Structure (SMILES): CS(=N)(=O)c1nc(N)c2[nH]c(=O)n(Cc3ccccc3)c2n1 (single isomer, unassigned) [Example 1-B, 6-Amino-9-benzyl-2-(methylsulfonimidoyl)-7H-purin-8-one]
IC50 (hERG channel): > 20 µM
IC20 (hERG channel): > 10 µM

Structure (SMILES): CCCS(=N)(=O)c1nc(N)c2[nH]c(=O)n(Cc3ccccc3)c2n1 (single isomer, unassigned) [Example 4-A, 6-Amino-9-benzyl-2-(propylsulfonimidoyl)-7H-purin-8-one]
Relative induction of Positive control (10 μM Rifampicin) (%) (CYP3A4): −0.63%

Structure (SMILES): CCCS(=N)(=O)c1nc(N)c2[nH]c(=O)n(Cc3ccccc3)c2n1 (single isomer, unassigned) [Example 4-B, 6-Amino-9-benzyl-2-(propylsulfonimidoyl)-7H-purin-8-one]
Relative induction of Positive control (10 μM Rifampicin) (%) (CYP3A4): −0.90%
EC50 (human TLR7; HEK-Blue-hTLR7 (EC50 (μM))): 0.086 µM

Structure (SMILES): CCCS(=N)(=O)c1nc(N)c2[nH]c(=O)n(Cc3ccc(C)cc3)c2n1 (single isomer, unassigned) [Example 29-A, 6-Amino-2-(propylsulfonimidoyl)-9-(p-tolylmethyl)-7H-purin-8-one]
IC50 (hERG channel): > 20 µM
IC20 (hERG channel): > 10 µM
EC50 (human TLR7; HEK-Blue-hTLR7 (EC50 (μM))): 0.019 µM

Structure (SMILES): CCCS(=N)(=O)c1nc(N)c2[nH]c(=O)n(Cc3ccc(C)cc3)c2n1 (single isomer, unassigned) [Example 29-B, 6-Amino-2-(propylsulfonimidoyl)-9-(p-tolylmethyl)-7H-purin-8-one]
IC50 (hERG channel): > 20 µM
EC50 (human TLR7; HEK-Blue-hTLR7 (EC50 (μM))): 0.022 µM

Structure (SMILES): CCS(=N)(=O)c1nc(N)c2[nH]c(=O)n(Cc3ccc(Cl)cc3)c2n1 (single isomer, unassigned) [Example 70-A, 6-Amino-9-[(4-chlorophenyl)methyl]-2-(ethylsulfonimidoyl)-7H-purin-8-one]
EC50 (human TLR8): > 1000 µM
AUC(0-inf) [1, 5]: 1.63 µM·h
C0 [1, 5]: 3050 nM
clearance [1, 5]: 56 mL/min/kg
Relative induction of Positive control (10 μM Rifampicin) (%) (CYP3A4): 0.42%
EC50 (human TLR7; [4]): 0.054 µM

Structure (SMILES): CCS(=N)(=O)c1nc(N)c2[nH]c(=O)n(Cc3ccc(Cl)cc3)c2n1 (single isomer, unassigned) [Example 70-B, 6-Amino-9-[(4-chlorophenyl)methyl]-2-(ethylsulfonimidoyl)-7H-purin-8-one]
C0 [1]: 2780 nM
Relative induction of Positive control (10 μM Rifampicin) (%) (CYP3A4): −0.42%
EC50 (human TLR7; [4]): 0.077 µM

AUC(0-inf) [1, 5]: 1.18 µM·h
C0 [1, 5]: 1850 nM
clearance [1, 5]: 84.6 mL/min/kg
Relative induction of Positive control (10 μM Rifampicin) (%) (CYP3A4): −0.10%
EC50 (human TLR7; [4]): 0.134 µM
Structure (SMILES): CCS(=N)(=O)c1nc(N)c2[nH]c(=O)n(Cc3ccc(C)cc3)c2n1 (single isomer, unassigned) [Example 71-A, 6-Amino-2-(ethylsulfonimidoyl)-9-(p-tolylmethyl)-7H-purin-8-one]
IC50 (hERG channel): > 20 µM
IC20 (hERG channel): > 10 µM

EC50 (human TLR7; [4]): 0.087 µM
Structure (SMILES): CCS(=N)(=O)c1nc(N)c2[nH]c(=O)n(Cc3ccc(C)cc3)c2n1 (single isomer, unassigned) [Example 71-B, 6-Amino-2-(ethylsulfonimidoyl)-9-(p-tolylmethyl)-7H-purin-8-one]

Relative induction of Positive control (10 μM Rifampicin) (%) (CYP3A4): −0.72%
Structure (SMILES): CCCS(=N)(=O)c1nc(N)c2[nH]c(=O)n(Cc3ccc(F)cc3)c2n1 (stereo not drawn) [Example 24, 6-Amino-9-[(4-fluorophenyl)methyl]-2-(propylsulfonimidoyl)-7H-purin-8-one]

C0 [1]: 534 nM
Structure (SMILES): CS(=O)(=O)c1nc(N)c2[nH]c(=O)n(Cc3ccccc3)c2n1 [Example S-1, reference compound]

Structure (SMILES): CCCCOc1nc(N)c2c(n1)N(Cc1cccc(CN3CCCC3)c1)CC(=O)N2 [GS-9620]
C0 [2]: 220 nM
ISG15 mRNA induction [3]: dose-dependent ISG15 mRNA induction
Safety and tolerability [3]: safe, well tolerated
